According to publication PMC10403534, “XCP1 cleaves Pathogenesis-related protein 1 into CAPE9 for systemic immunity in Arabidopsis” (Nature Communications, 2023):

Target: T1, XCP1-His (Arabidopsis thaliana, UniProt O65493)
T1 construct: C-terminal 6xHis tag kept; from Arabidopsis cDNA; transiently expressed in Nicotiana benthamiana leaves with P19, Ni-NTA purified
Assay: inhibition of Ac-CNYD-AMC cleavage, […] h preincubation, […] h incubation
Type: biochemical
Conditions: 1 ug enzyme, 25 uM Ac-CNYD-AMC; covalent

T1 sequence (O65493 137-355): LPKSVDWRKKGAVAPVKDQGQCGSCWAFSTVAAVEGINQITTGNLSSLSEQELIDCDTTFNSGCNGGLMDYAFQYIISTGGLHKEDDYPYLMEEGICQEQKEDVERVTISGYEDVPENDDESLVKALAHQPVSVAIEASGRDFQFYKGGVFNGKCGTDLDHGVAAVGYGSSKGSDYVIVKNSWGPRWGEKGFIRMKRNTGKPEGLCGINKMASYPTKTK

`CC(C)C[C@H](NC(=O)[C@H]1O[C@@H]1C(=O)O)C(=O)NCCCCNC(=N)N` [E-64] was tested, and the “inhibition of Ac-CNYD-AMC cleavage, 1 h preincubation, 10 h incubation” value was “CNYDase activity of purified XCP1-His was enhanced by CaCl2 and inhibited by ZnCl2 and E-64”.
